Test results as given in US12410155B2, “Salt form and crystal form of tetrahydrocyclohepta indazole compound” (Zhejiang Yangli Pharmaceutical Technology Co., Ltd., priority 2021, dated 2025).
Where two headings read alike, the source gives them in different places.

Biological target: T1, ERα (Homo sapiens, UniProt P03372)
T1 construct: degradation effects on ERα in various breast cancer cell lines; endogenous in cells; host or cells: MCF-7, T-47D, CAMA-1
T1 sequence (P03372 1-595): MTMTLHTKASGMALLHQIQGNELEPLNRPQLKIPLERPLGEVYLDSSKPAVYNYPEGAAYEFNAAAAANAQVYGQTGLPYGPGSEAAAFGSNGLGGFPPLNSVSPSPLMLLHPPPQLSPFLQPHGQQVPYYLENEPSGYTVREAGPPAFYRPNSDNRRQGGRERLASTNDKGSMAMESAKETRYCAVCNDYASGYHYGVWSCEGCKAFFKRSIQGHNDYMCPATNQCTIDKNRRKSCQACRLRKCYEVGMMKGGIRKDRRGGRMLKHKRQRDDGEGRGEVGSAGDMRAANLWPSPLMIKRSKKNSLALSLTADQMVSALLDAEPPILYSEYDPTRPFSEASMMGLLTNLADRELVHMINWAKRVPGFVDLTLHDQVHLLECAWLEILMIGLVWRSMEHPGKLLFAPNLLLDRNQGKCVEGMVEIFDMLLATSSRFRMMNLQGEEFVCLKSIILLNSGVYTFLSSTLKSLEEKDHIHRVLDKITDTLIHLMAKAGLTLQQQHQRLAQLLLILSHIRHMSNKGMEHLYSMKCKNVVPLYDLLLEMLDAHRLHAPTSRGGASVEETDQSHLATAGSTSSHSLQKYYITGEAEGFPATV
Test: ERα degradation assay (ICW) in MCF-7, T-47D and CAMA-1 cells
Type: cell-based
Conditions: 4 hours, read-out: IC50 (nM), degradation effect on ERα
Procedure: (3) ERα Degradation Assay in MCF-7, T-47D, and CAMA-1 Cells
• 1) The complete culture medium was aspirated from the culture flask, followed by the addition of an appropriate amount of trypsin for rinsing. The trypsin solution was then aspirated to remove residual serum. • 2) Subsequently, an appropriate amount of trypsin was added for a second rinse and aspirated. The culture flask was placed in an incubator for 2-3 minutes, then removed, and gently agitated to detach the cells. • 3) The cells were resuspended in fresh complete culture medium and counted using a cell counter. • 4) The cell suspension was prepared according to the required plating density. • 5) A volume of 30.0 μL of the cell suspension was added to each well of a 384-well plate. • 6) The experimental plate was placed in a centrifuge and centrifuged at 1000 rpm for 1 minute. • 7) The experimental plate was then incubated overnight in a cell incubator. • 8) According to the sample addition diagram of experimental plate (refer to 3.5.1), 20.0 μL of the diluted test sample was added to each well. […] The plate was incubated at 4° C. overnight. • 19) The primary antibody solution in the plate was discarded, and the plate was washed five times with PBS using a multidrop. • 20) A mixture of 25 μL of secondary antibody and DRAQ5 was added to each well, and incubated at room temperature for 1 hour. • 21) The plate was washed five times with PBS using a multidrop. • 22) The plate was washed with ddH2O twice, and patted dry. • 23) The plate was subsequently read using the Odyssey infrared imaging system. […]
The IC50 values were calculated using GraphPad Prism 7.0, a data analysis software.
This experiment evaluated the effect of compound of formula (I) on the expression of ERα protein in MCF-7, T-47D, and CAMA-1 cells. The expression levels of ERα protein were detected using the ICW assay after 4 hours of drug treatment.

FCCCN1CC[C@H](Nc2cnc(C3=C(CC(F)(F)F)CCCc4c3ccc3[nH]nc(F)c43)cn2)C1 [Compound of formula (I)]
DC50 (CAMA-1 cells): 1.25 nM
DC50 (MCF-7 cells): 0.235 nM
DC50 (T-47D cells): 0.78 nM
